US11974983B2 (Duke University, priority 2018, dated 2024)
Like-named read-outs stand apart in the source and are kept apart here.

Legend:
MCF7 D538G = assay: Mammary intraductal (MIND) xenograft model, MCF7 D538G; type: in vivo, NSG mice
Procedure: (§1) MCF7 cells were engineered with CRISPR/Cas9 to express ERα with Y537S and D538G mutations. To mimic the natural environment of infiltrating ductal ERα^+ breast cancers, NSG™ mice were injected, via the nipple in the inguinal mammary glands, with three MCF7 cell variants: wild type MCF7 cells (MCF7 WT), MCF7 cells expressing Y537S mutant ERα (MCF7 Y537S), and MCF7 cells expressing D538G mutant ERα (MCF7 D538G), respectively. Prior to injection, the MCF7 cells were labeled with a luciferase reporter to monitor tumor growth in vivo using a Xenogen IVIS imager. […] FIG. 4 summarizes the experimental design.

[1] = system: ER+ HER2− advanced or metastatic breast cancer; assay: Phase 2 clinical study, lasofoxifene versus fulvestrant; type: in vivo, postmenopausal women; conditions: 5 mg once daily oral
Procedure: The design of the study is outlined in FIG. 26. The study is an open label, randomized, multicenter study. Full recruitment into study occurs within twelve to sixteen months, with another twelve months of follow up before the primary outcome measure is analyzed. Screening tests are performed within thirty days of enrollment. Subjects are treated until documented disease progression.
As a comparison, fulvestrant is given to the breast cancer patient at 500 mg by intramuscular injection on day 1, day 15, and day 29, and then once every month.
The inclusion criteria include: • 1. Postmenopausal women with: a. locally advanced or metastatic breast cancer with either measurable or non-measurable lesions, b. progression on an AI in combination with a CDK 4/6 inhibitor for advanced breast cancer; • 2. If possible, a biopsy of metastatic breast cancer tissue will be obtained to confirm ER^+ and HER2^− disease; • 3. At least one or more of the following ESR1 mutations: Y537S, Y537N, Y537C, D538G, L536, E380Q, or S463P assessed from […] in blood; • 4. Received one chemotherapy regimen in the neo-adjuvant or adjuvant setting prior to entry into the trial; • 5. ECOG performance score of 0 or 1.

[2] = cited from earlier work
[3] = system: MCF7 cells stably expressing DOX-inducible ER D538G; assay: Dose response cell counting in MCF7 cells with DOX-inducible HA-tagged ER D538G; type: cell-based; conditions: for IC50: Homo sapiens, MCF7, 120 h, allele D538G, cell count day 5, full medium
Procedure: (§2) MCF7 estrogen receptor alpha positive (ER^+) breast cancer cells were engineered to stably express doxycycline (DOX)-inducible hemagglutinin (HA)-tagged full length ER with ligand binding domain mutations Y537S and D538G. The introduction and expression of the mutants were confirmed by Sanger sequencing, RNA-sequencing, and western blot.
(§3) The dose response studies were performed in full medium conditions. Cells were treated with DOX for the induction of HA-tagged mutated ER or with vehicle as control, and plated in triplicate. Subsequently, on day 5, cell counting was performed using the Celigo instrument with Hoechst dye staining to detect nucleated live cells and propidium iodide to quantify dead cells.
(§4) IC50 values were calculated using PRISM.

[4] = system: MCF7 cells stably expressing DOX-inducible ER Y537S; assay: Dose response cell counting in MCF7 cells with DOX-inducible HA-tagged ER Y537S; type: cell-based; conditions: for IC50: Homo sapiens, MCF7, 120 h, allele Y537S, cell count day 5, full medium
Procedure: as §2, §3, §4

[5] = Cmax in blood at doses used in prior clinical trials; type: in vivo; conditions: dose 1 mg; read-out: Converted (M) Cmax
Description: See Maximov et al., Current Clinical Pharmacology 8(2): 135-155 (2013). […] See Assessment Report for Fablyn, 2009 (EMA). […] See Gardner et al., J Clin Pharmacol 46(1): 52-58 (2006).

MCF7 Y537S = assay: Mammary intraductal (MIND) xenograft model, MCF7 Y537S; type: in vivo, NSG mice
Procedure: as §1

[6] = DOX-induced mutant ER, read-out: IC50 DOX (ESR mutation)
[7] = no DOX, read-out: IC50 No DOX (wt only)
[8] = MCF7 Y537S, 5 mg/kg and 10 mg/kg, after 70 days

## Oc1ccc2c(c1)CC[C@H](c1ccccc1)[C@@H]2c1ccc(OCCN2CCCC2)cc1 [Lasofoxifene, lasofoxifene]
MCF7 D538G; MCF7 D538G mice, 10 mg/kg five times per week subcutaneous
  tumor growth monitored by total flux: most significantly inhibited
MCF7 D538G; MCF7 D538G, 5 mg/kg and 10 mg/kg, after 70 days
  tumor weight, compared to fulvestrant: significantly more effective
MCF7 D538G; MCF7 D538G, 10 mg/kg, after 70 days of treatment
  tumor growth measured by tumor weight, compared to vehicle control: significantly inhibited
MCF7 D538G; MCF7 D538G, all tested doses (1, 5, 10 mg/kg), after 70 days
  liver metastasis: effective in reducing liver metastasis at all tested doses
[1]; D538G mutant patient population
  median PFS compared to fulvestrant: increases the median PFS
[1]; E380Q mutant patient population
  median PFS compared to fulvestrant: increases the median PFS
[1]; ESR1 mutation population
  median PFS compared to fulvestrant: increases the median PFS
[1]; L536 mutant patient population
  median PFS compared to fulvestrant: increases the median PFS
[1]; S463P mutant patient population
  median PFS compared to fulvestrant: increases the median PFS
[1]; Y537C mutant patient population
  median PFS compared to fulvestrant: increases the median PFS
[1]; Y537N mutant patient population
  median PFS compared to fulvestrant: increases the median PFS
[1]; Y537S mutant patient population
  median PFS compared to fulvestrant: increases the median PFS
[2]; PEARL trial, post-menopausal women with osteoporosis
  risk of breast cancer: reduced the risk of breast cancer
[2]; double-blind, placebo-controlled, randomized PEARL trial
  risk of osteoporosis: reduce the risk of osteoporosis
[3]; D538G stable transfectants, 10^−12 M to 10^−6 M
  anti-estrogenic activity, cell killing with increasing dose titration: kill the stably transfected cells
[3]; [6]
  IC50: 1 nM
[3]; [7]
  IC50: 0.1 nM
[4]; [6]
  IC50: 4.1 nM
[4]; [7]
  IC50: 0.36 nM
[4]; Y537S stable transfectants, 10^−12 M to 10^−6 M
  anti-estrogenic activity, cell killing with increasing dose titration: kill the stably transfected cells
[5]
  Cmax: 1.55e-08 M
MCF7 Y537S; MCF7 Y537S mice, 10 mg/kg five times per week subcutaneous
  tumor growth monitored by total flux: most significantly inhibited
MCF7 Y537S; [8]
  liver metastasis, compared to fulvestrant: significantly more effective in reducing liver metastasis
  tumor weight, compared to fulvestrant: significantly more effective
MCF7 Y537S; MCF7 Y537S, 10 mg/kg, after 70 days of treatment
  tumor growth measured by tumor weight, compared to vehicle control: significantly inhibited
MCF7 Y537S; MCF7 Y537S, all tested doses (1, 5, 10 mg/kg), after 70 days
  tumor growth measured by tumor weight: significantly inhibited the growth of tumors at all tested doses
MCF7 Y537S; MCF7 Y537S, lasofoxifene 5 mg/kg and 10 mg/kg, after 70 days
  lung metastasis: significantly reduce lung metastasis
